Values of other authors in patent US20190011434A1, “METHODS TO DETERMINE CANCER TREATMENT USING ROBOTIC HIGH-THROUGHPUT DRUG SENSITIVITY TESTING” (AntiCancer, Inc., priority 2017, published 2019).

Key:
[1] = system: primary tumor and axillary lymph node metastasis from breast cancer patients; settings: 30 patients; cutoff drug concentrations; 7 days incubation; p<0.05
[2] = system: head and neck squamous cell carcinoma (HNSCC) tumor specimens; settings: 41 evaluated tumors; cisplatin 15 microg/mL or 5-fluorouracil 40 microg/mL; sensitivity = inhibition rate greater than 30%

SMILES	Chemosensitivity of lymph node metastases compared with primary tumor [1]	Resistance in the HDRA (share of cases) [2]
COc1cccc2c1C(=O)c1c(O)c3c(c(O)c1C2=O)C[C@@](O)(C(=O)CO)C[C@@H]3O[C@H]1C[C@H](N)[C@H](O)[C@H](C)O1 [DOX, doxorubicin]	more resistant than the primary tumor	
O=c1[nH]cc(F)c(=O)[nH]1 [5-fluorouracil]	more resistant than the primary tumor	32%
CO[C@@]12[C@H](COC(N)=O)C3=C(C(=O)C(C)=C(N)C3=O)N1C[C@@H]1N[C@@H]12 [MMC, mitomycin C]	more resistant than the primary tumor	
N.N.[Cl][Pt][Cl] [cisplatinum]	not	32%
